This is an account of results in patent US10188756B2, “Imaging histone deacetylases with a radiotracer using positron emission tomography” (THE GENERAL HOSPITAL CORPORATION, priority 2013, dated 2019).

“Also recorded” adds a separate entry of the source. Some results are limits rather than exact numbers.

For one data set, the target named is HDAC6 (Homo sapiens (Human), UniProt Q9UBN7). Description: HDAC inhibition assay. In kind it is biochemical. The text has this:
(§1) All histone deacetylases were purchased from BPS Bioscience. […] All the other reagents were purchased from Sigma-Aldrich.

The target of another data set is HDAC8 (Homo sapiens (Human), UniProt Q9BY41). Kind of data set: HDAC inhibition assay. In kind it is biochemical.
Description: as §1

A further data set is described as follows: Log D determination. The note with it: octanol / phosphate buffer pH 7.4. It is filed as physicochemical. The procedure: An aliquot (˜50 μL) of the formulated radiotracer was added to a test tube containing 2.5 mL of octanol and 2.5 mL of phosphate buffer solution (pH 7.4). The test tube was mixed by vortex for 2 minutes and then centrifuged for 2 minutes to fully separate the aqueous and organic phase. A sample taken from the octanol layer (0.1 mL) and the aqueous layer (1.0 mL) was saved for radioactivity measurement. An additional aliquot of the octanol layer (2.0 mL) was carefully transferred to a new test tube containing 0.5 mL of octanol and 2.5 mL of phosphate buffer solution (pH 7.4). The previous procedure (vortex mixing, centrifugation, sampling, and transfer to the next test tube) was repeated until six sets of aliquot samples had been prepared. The radioactivity of each sample was measured in a well counter (Perkin-Elmer, Waltham, Mass.). The log D of each set of samples was derived by the following equation: log D=log (decay-corrected radioactivity in octanol sample×10/decay-corrected radioactivity in phosphate buffer sample).

Data set [1] deals with histone deacetylases. Description: Rodent PET/CT imaging with [11C]CN133. It is filed as in vivo, rats (Sprague Dawley). The protocol:
Male Sprague-Dawley rats were utilized in pairs, anesthetized with inhalational isoflurane (Forane) at 3% in a carrier of 2 L/min medical oxygen and maintained at 2% isoflurane for the duration of the scan. The rats were arranged head-to-head in a Triumph Trimodality PET/CT/SPECT scanner (Gamma Medica, Northridge, Calif., USA). Rats were injected standard references or vehicle via a lateral tail vein catheterization at the start of PET acquisition. Dynamic PET acquisition lasted for 60 minutes and was followed by computed tomography (CT) for anatomic coregistration. PET data were reconstructed using a 3D-MLEM method resulting in a full width at half-maximum resolution of 1 mm. Reconstructed images were exported from the scanner in DICOM format along with an anatomic CT for rodent studies. These files were imported to PMOD (PMOD Technologies, Ltd.) and manually coregistered using six degrees of freedom.
Volumes of interest (VOIs) were drawn manually as spheres in brain regions guided by high resolution CT structural images and summed PET data, with a radius no less than 1 mm to minimize partial volume effects. Time-activity curves (TACs) were exported in terms of decay corrected activity per unit volume at specified time points with gradually increasing intervals. The TACs were expressed as percent injected dose per unit volume for analysis.

Data set [2] concerns histone deacetylases. Description: Baboon PET/MR imaging with [11C]CN133. In kind it is in vivo, baboon (Papio anubis). The protocol:
A female Papio Anubis baboon, deprived of food for 12 hours prior to the study, was administered intramuscular ketamine (10 mg/kg) and intubated. For maintenance of anesthesia throughout the study, the baboon was provided 1%-4% isoflurane (Forane) in a mixture of medical oxygen and nitrogen. The baboon was catheterized antecubitally for radiotracer injection and a radial arterial line was placed for metabolite analysis. MR-PET images were acquired in a BiographmMR scanner (Siemens, Munich, Germany), and PET compatible 8-channel coil arrays for non-human primate brain imaging with a PET resolution of 5 mm and field of view of 59.4 cm and 25.8 cm (transaxial and axial, respectively). Dynamic PET image acquisition was initiated followed by administration of the radiotracer in a homogenous solution of 10% ethanol and 90% isotonic saline. An […] sequence began after 30 minutes of the baseline scan for anatomic coregistration. […] Both scans were carried out in the same animal on the same day, separated by 2.5 hours. In both scans, 4-5 mCi of [^11C]CN133 was administered to the baboon. Dynamic data from the PET scans were recorded in list mode and corrected for attenuation. Baboon data were reconstructed using a 3D-OSEM method resulting in a full width at half-maximum resolution of 4 mm.
Volumes of interest (VOIs) were drawn manually as spheres in brain regions guided by high resolution MR structural images and summed PET data, with a radius no less than 4 mm. A common VOI mask was applied to both baboon scans. Time-activity curves (TACs) were exported in terms of decay corrected activity per unit volume at specified time points with gradually increasing intervals. The TACs were expressed as percent injected dose per unit volume for analysis.
Arterial samples collected during imaging from the baboon were centrifuged to obtain plasma, which was then removed and placed in an automated gamma counter that was calibrated to the PET scanner. Metabolite analysis was conducted on a custom automated robot fitted with Phenomenex SPE Strata-X 500 mg solid phase extraction cartridges that were primed with ethanol (2 mL) and deionized water (20 mL). Protein precipitation was achieved by addition of plasma (300 μL) to acetonitrile (300 μL), which was centrifuged for 1 minute to obtain protein-free plasma (PFP). 300 μL of PFP/acetonitrile solution was diluted into deionized water (3 mL), loaded onto the C18 cartridge, and removed of polar metabolites with 100% water. Next, a series of extractions were performed using water and acetonitrile in quantities: 95:5, 90:10, 85:15, 80:20, 70:30, 60:40, 30:70 and 100% acetonitrile at a volume of 4 mL. A control experiment was performed before metabolite analysis to determine the retention of the parent compound by injection of a small amount of [^11C]CN133 onto a test series of extraction cartridges. Each sample was counted in a WIZARD2 Automatic Gamma Counter to determine the presence of radiolabeled metabolites.
CN147 blocks ˜40% of [^11C]CN133 binding in NHP whole brain and in cerebellum. Plasma-normalized data were evaluated by volume of interest analysis (VOI) at the whole brain level and at level of the cerebellum. VOI data were then applied to distribution volume (VT) data analysis by two graphical methods using PMOD software, tabulated in Tables A and B below. Logan Plot and Ichese MAI methods were clarified from previous NHP imaging analyses to provide an accurate VT estimate (+/− standard error) from data beginning 35 min after injection of radiotracer (t*=35 min) until the end of the scan (t=80min).

A short description of data set [3]: Off target binding assays. The note with it: at 100 times its HDAC IC50.
A further data set deals with cell cultures. Kind of data set: Efficacy in cell cultures. It is filed as cell-based.
The target in a further data set is HDAC1 through HDAC9. Kind of data set: HDAC inhibition assay, isoform panel. It is filed as biochemical.
Description: as §1

For a further data set, the target named is HDAC1 (Homo sapiens (Human), UniProt Q13547). Description: HDAC inhibition assay. The note with it: read-out: IC50 HDAC1.
For another data set, the target named is HDAC3 (Homo sapiens (Human), UniProt O15379). Description: HDAC inhibition assay. The note with it: read-out: IC50 HDAC3.
Another data set has as its target HDAC4 (Homo sapiens (Human), UniProt P56524). Kind of data set: HDAC inhibition assay. The following applies: read-out: IC50 HDAC4.
The next data set deals with HDAC5 (Homo sapiens (Human), UniProt Q9UQL6). Description: HDAC inhibition assay. The note with it: read-out: IC50 HDAC5.
The target in the next data set is HDAC7 (Homo sapiens (Human), UniProt Q8WUI4). Description: HDAC inhibition assay. The following applies: read-out: IC50 HDAC7.
In a further data set the target is HDAC9 (Homo sapiens (Human), UniProt Q9UKV0). Kind of data set: HDAC inhibition assay. The following applies: read-out: IC50 HDAC9.

Sequence of HDAC5 (Q9UQL6 whole entry): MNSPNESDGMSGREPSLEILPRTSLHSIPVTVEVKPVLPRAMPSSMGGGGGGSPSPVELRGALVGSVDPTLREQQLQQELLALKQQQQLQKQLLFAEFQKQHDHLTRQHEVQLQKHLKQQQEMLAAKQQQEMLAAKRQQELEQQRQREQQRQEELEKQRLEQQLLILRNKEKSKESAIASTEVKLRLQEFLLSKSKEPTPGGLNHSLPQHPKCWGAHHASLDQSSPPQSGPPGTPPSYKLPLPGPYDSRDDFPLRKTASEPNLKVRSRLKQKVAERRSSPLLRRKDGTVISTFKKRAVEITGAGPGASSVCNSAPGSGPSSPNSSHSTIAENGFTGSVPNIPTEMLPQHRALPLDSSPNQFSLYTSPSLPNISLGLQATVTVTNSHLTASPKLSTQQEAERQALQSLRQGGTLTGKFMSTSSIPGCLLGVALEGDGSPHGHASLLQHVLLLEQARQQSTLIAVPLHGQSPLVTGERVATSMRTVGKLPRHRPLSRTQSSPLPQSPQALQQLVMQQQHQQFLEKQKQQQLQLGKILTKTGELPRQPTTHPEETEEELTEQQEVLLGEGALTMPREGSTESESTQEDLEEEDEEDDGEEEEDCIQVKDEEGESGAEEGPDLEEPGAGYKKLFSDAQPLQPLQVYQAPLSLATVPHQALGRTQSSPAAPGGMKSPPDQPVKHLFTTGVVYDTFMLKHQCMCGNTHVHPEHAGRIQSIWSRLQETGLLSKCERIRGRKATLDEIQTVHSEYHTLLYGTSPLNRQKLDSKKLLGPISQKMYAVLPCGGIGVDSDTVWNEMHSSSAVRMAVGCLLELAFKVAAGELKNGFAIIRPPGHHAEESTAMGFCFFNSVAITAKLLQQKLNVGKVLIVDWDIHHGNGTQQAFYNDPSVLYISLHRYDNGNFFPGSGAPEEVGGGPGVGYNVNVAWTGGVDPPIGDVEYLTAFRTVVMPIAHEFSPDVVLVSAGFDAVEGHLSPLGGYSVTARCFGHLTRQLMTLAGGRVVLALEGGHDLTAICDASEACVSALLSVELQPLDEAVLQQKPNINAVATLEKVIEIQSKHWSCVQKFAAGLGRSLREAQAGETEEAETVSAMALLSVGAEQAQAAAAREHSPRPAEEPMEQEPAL
Sequence of HDAC1 (Q13547 whole entry): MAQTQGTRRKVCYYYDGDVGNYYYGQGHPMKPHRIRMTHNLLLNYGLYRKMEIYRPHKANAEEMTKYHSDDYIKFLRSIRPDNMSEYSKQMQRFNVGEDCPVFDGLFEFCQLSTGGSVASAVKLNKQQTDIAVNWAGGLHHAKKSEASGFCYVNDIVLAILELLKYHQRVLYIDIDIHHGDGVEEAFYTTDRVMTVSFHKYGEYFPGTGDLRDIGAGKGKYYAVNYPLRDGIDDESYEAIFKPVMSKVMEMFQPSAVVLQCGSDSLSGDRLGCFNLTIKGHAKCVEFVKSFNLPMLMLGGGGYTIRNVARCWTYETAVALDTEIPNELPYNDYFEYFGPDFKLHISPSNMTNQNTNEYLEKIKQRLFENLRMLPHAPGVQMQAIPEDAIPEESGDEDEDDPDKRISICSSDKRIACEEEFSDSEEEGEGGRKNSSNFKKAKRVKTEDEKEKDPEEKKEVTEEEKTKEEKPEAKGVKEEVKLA
Sequence of HDAC4 (P56524 whole entry): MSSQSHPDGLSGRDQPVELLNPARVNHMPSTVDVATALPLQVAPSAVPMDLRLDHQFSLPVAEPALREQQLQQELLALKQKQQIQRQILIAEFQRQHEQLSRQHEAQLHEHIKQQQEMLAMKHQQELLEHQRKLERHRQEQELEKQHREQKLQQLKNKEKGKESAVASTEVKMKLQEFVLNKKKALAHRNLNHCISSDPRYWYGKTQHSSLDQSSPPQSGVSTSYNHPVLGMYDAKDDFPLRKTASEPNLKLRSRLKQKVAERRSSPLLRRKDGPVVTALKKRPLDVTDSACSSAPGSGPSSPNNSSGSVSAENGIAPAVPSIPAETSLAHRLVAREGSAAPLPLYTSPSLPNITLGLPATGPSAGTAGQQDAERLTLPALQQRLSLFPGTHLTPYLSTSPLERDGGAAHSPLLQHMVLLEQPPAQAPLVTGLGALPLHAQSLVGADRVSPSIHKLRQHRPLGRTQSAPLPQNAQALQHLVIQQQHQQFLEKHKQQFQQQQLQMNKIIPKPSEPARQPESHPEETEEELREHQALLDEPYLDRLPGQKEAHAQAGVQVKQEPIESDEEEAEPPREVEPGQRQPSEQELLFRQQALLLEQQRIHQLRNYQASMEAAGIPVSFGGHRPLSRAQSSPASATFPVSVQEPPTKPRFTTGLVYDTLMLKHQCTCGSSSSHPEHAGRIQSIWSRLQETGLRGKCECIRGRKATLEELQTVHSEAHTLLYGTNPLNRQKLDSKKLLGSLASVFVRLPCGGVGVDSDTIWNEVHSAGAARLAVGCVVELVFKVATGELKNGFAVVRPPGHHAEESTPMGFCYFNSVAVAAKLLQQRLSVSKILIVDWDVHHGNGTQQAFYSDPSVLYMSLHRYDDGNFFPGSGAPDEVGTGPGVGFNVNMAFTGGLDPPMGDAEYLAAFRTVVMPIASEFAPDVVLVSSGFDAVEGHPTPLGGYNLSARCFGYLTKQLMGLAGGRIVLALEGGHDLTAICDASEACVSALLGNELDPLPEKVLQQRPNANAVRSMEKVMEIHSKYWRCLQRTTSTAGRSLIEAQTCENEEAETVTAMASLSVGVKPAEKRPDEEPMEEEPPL
Sequence of HDAC6 (Q9UBN7 whole entry): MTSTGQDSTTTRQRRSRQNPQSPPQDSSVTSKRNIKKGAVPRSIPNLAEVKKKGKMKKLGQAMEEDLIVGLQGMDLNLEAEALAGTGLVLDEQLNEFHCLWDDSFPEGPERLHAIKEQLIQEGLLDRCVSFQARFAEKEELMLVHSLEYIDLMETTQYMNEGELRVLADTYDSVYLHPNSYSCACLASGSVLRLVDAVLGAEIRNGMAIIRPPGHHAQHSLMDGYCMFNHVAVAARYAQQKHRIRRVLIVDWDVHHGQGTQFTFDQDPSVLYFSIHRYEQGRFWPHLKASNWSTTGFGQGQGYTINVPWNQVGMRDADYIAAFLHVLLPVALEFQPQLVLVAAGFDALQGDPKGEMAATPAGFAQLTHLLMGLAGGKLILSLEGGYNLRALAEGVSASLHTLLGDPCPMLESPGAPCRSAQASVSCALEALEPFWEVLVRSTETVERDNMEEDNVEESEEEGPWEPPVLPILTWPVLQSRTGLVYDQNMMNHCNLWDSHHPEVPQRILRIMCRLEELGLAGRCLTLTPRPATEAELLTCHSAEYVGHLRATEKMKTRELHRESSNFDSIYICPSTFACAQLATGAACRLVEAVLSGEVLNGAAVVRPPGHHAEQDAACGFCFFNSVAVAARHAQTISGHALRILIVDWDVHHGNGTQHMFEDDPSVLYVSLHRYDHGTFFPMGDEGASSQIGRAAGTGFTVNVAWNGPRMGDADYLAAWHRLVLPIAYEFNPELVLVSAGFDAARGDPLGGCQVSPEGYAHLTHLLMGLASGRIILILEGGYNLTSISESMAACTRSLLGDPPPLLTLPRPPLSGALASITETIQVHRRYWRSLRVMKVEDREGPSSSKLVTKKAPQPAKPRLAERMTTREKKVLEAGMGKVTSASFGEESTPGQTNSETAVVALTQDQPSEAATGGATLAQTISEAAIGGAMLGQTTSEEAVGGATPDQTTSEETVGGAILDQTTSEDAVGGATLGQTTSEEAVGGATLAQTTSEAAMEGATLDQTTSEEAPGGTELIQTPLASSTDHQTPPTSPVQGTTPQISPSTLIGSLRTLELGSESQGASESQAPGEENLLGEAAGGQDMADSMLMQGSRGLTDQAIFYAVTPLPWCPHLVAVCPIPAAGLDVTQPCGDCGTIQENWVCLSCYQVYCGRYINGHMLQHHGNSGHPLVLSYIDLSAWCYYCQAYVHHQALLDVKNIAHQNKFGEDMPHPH
Sequence of HDAC7 (Q8WUI4 whole entry): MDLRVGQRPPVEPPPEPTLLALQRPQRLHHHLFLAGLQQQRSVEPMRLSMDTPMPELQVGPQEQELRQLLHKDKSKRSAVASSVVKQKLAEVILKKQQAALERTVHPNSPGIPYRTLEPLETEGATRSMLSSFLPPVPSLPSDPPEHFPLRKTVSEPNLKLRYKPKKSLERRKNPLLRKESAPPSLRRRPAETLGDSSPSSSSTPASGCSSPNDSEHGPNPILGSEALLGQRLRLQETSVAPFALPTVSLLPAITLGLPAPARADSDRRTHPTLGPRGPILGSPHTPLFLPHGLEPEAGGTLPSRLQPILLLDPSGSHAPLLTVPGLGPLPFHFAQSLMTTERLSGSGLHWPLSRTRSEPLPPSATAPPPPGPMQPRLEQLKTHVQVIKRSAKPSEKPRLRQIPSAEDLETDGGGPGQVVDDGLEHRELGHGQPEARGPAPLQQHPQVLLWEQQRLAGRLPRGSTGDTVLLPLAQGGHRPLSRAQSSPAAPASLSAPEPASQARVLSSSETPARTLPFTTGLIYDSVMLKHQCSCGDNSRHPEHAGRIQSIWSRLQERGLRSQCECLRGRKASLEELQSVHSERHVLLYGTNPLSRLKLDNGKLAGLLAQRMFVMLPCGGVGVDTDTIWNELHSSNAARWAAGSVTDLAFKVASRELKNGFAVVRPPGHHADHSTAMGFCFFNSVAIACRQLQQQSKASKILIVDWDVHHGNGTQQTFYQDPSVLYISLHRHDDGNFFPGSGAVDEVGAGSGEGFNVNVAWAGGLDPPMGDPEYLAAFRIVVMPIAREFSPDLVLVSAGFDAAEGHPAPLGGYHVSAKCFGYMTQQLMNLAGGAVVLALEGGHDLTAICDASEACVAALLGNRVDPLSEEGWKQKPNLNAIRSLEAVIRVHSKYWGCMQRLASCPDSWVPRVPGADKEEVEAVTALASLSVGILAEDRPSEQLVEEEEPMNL
Description for HDAC3: (§2) All histone deacetylases were purchased from BPS Bioscience. […] All the other reagents were purchased from Sigma-Aldrich. Caliper EZ reader II system was used to collect all data. […] Purified HDACs were incubated with 2 μM carboxyfluorescein (FAM)-labeled acetylated or trifluoroacetylated peptide substrate (Broad Substrate A and B respectively) and test compound for 60 minutes at room temperature, in HDAC assay buffer that contained 50 mM HEPES (pH 7.4), 100 mM KCl, 0.01% BSA and 0.001% Tween-20. […] Substrate and product were separated electrophoretically and fluorescence intensity in the substrate and product peaks was determined and analyzed by Labchip EZ Reader. The reactions were performed in duplicate for each sample. IC50 values were automatically calculated by Origin 8 using 4 Parameter Logistic Model. The percent inhibition was plotted against the compound concentration, and the IC50 value was determined from the logistic dose-response curve fitting by Origin 8.0 software.
Description for HDAC4: as §2
Description for HDAC5: as §2
Description for HDAC7: as §2

Broadly, the IC50 is the midpoint of a concentration-inhibition curve. As for `CN(Cc1ccc(/C=C/C(=O)NO)cc1)CC12CC3CC(CC(C3)C1)C2` [CN133, (E)-3-(4-((((3r,5r,7r)-adamantan-1-ylmethyl)(methyl)amino)methyl)phenyl)-N-hydroxyacrylamide], the IC50 is 0.0041 µM against HDAC6; over 15 µM at HDAC8; 0.0003 µM on HDAC1; 0.0006 µM on HDAC3; 1.97 µM at HDAC4; 0.352 µM at HDAC5. The IC50 at HDAC7 was over 20 µM; at HDAC9, over 15 µM. For the same compound, the “partition coefficient (Log D)” value in “Log D determination” was 2.03. In addition, in the data set with histone deacetylases [1] (30-minute pretreatment of CsA 25 mg/kg), the “P-glycoprotein interaction (CsA pretreatment study)” value is on record as “not a Pgp inhibitor”. Also, in the data set with histone deacetylases [1] (CN133 1.0 mg/kg i.v. 20 minutes into baseline scan with [11C]CN133), the reversibility of binding entry is listed as “reversible inhibitor; also recorded: rapid washout of radioactivity from brain regions”. Moreover, the “[11C]CN133 uptake in peripheral organs/regions of rats after treatment” value in the data set on histone deacetylases [1] (peripheral organs (heart wall, kidney cortex, spleen)) is “decreased”. In the data set on histone deacetylases [2] (baboon, tracer dose or blocking dose), the “changes in vital signs” value was “did not notice any significant changes”. Further, the “blocking of [11C]CN133 uptake in baboon peripheral organs (time-activity curves)” value in the data set with histone deacetylases [2] (heart, spleen, kidney, pancreas, CN133 0.5 mg/kg 10-minute pre-treatment, SAHA infusion 5 mg/kg) was “significant blocking”. Besides, the “blocking of [11C]CN133 uptake in baboon brain” value in the data set on histone deacetylases [2] (intravenous, CN133 0.01-1.0 mg/kg, CN147 0.5 mg/kg) is “reduced the regional radioactivity uptake”. The off target binding entry in data set [3] was “minimal (if any) off target binding”. In addition, the “efficacy in cell cultures” value with cell cultures is on record as “sub-nanomolar”. Also, the “IC50 / binding towards HDAC isoforms (in words)” value at HDAC1 through HDAC9 (HDAC1, HDAC2, HDAC3 and HDAC6) was “low nanomolar; also recorded: sub-nanomolar”. For the same compound, the “selectivity over each of the other HDAC isoforms” value with HDAC1 through HDAC9 (HDAC1-3 and HDAC6 versus other isoforms) is “greater than 100 fold”.
